Laboratory results: PMC8437966, “Structure and function relationship of OqxB efflux pump from Klebsiella pneumoniae” (Nature Communications, 2021)
≈ marks a conversion by molar mass, not a printed value.

Key:
Escherichia coli SEC045 [1] = tested on: T1, Escherichia coli SEC045; parameters: CLSI broth microdilution MIC, 96-well, absorbance at 600 nm
T1 construct: SEC045
Experimental: (§1) MIC (Minimum Inhibitory Concentration) was determined according to CLSI guidelines, as discussed elsewhere. Briefly, the strains were streaked on LB-Agar plates with Ampicillin (100 µg/mL) from glycerol stocks maintained at −80 °C and allowed to grow overnight at 37 °C. A single colony of each strain was picked from the fresh plates and grown in MHB No.2 Control Cations Hi-Media (MHB) with Ampicillin (100 µg/mL). Phe-Arg β-Naphthylamide (PAβN; Sigma-Aldrich, Catalog no.# P4157) was used at a final concentration of 20 µg/mL, wherever mentioned. The AcrAB and OqxAB expression are under a […] promoter, and AcrB and OqxB were induced with 100 μM of IPTG (Amresco, Catalog no.# 0487-10 G). Antibiotics and their two-fold dilution series were prepared in DMSO. Three microliters compound from each of the dilutions and 150 μL (3–7 × 10^5 CFU/mL) of bacterial culture were added to a flat bottom 96 well microtiter plates to obtain final antibiotic concentrations ranging from 0.03 µg/mL to 160 µg/mL. The plates were packed in gas permeable polythene bags and incubated at 37 °C for 16–18 h. MIC was determined as the concentration at which no bacterial growth was observed as ascertained by absorbance (A600nm) with a spectrophotometer. In the case of the wild-type strain and clinical isolates, 90% growth inhibition was used for MIC determination. […] All experiments were performed in triplicates and the data reported in this work is representative of the same. OqxB, the RND efflux pump component, is associated with increased resistance in clinical isolates of E. coli and K. pneumoniae. To understand the efflux liability for fluoroquinolones in E. coli in the clinic, 84 recent clinical isolates were evaluated by MIC experiments (at St. John’s Medical Hospital, Bengaluru, India). […] To delineate the cause of the resistance, the Quinolone-resistance determining regions (QRDR) of gyrA and parC were sequenced. […] Therefore, complementation experiments in “sensitive strains” were undertaken to further probe the role of OqxB in efflux towards fluoroquinolone resistance.

Escherichia coli SEC052 = tested on: T2, Escherichia coli SEC052; parameters: CLSI broth microdilution MIC, 96-well, absorbance at 600 nm
T2 construct: SEC052
Experimental: as §1

Escherichia coli SEC063 = tested on: T3, Escherichia coli SEC063; parameters: CLSI broth microdilution MIC, 96-well, absorbance at 600 nm
T3 construct: SEC063
Experimental: as §1

Escherichia coli SEC010 = tested on: T4, Escherichia coli SEC010; parameters: CLSI broth microdilution MIC, 96-well, absorbance at 600 nm
T4 construct: SEC010
Experimental: as §1

Escherichia coli SEC056 = tested on: T5, Escherichia coli SEC056; parameters: CLSI broth microdilution MIC, 96-well, absorbance at 600 nm
T5 construct: SEC056
Experimental: as §1

Escherichia coli SEC032 [2] = tested on: T6, Escherichia coli SEC032; parameters: CLSI broth microdilution MIC, 96-well, absorbance at 600 nm
T6 construct: SEC032
Experimental: as §1

Escherichia coli SEC086 [3] = tested on: Escherichia coli SEC086
Experimental: as §1

Escherichia coli SEC037 [4] = tested on: Escherichia coli SEC037
Experimental: as §1

Escherichia coli SEC030 [5] = tested on: Escherichia coli SEC030
Experimental: as §1

Escherichia coli BW25113 = tested on: Escherichia coli BW25113
Experimental: as §1

Escherichia coli SEC086 [6] = tested on: T7, Escherichia coli SEC086; assay: microbe, parasite or virus in culture; parameters: species or system Escherichia coli clinical isolates; CLSI broth microdilution MIC on E. coli clinical isolates, A600 read-out, 90% growth inhibition; details: SEC086, read-out: MIC VALUES / Ampicillin
T7 construct: SEC086
Experimental: as §1

Escherichia coli SEC050 = tested on: T8, Escherichia coli SEC050; assay: microbe, parasite or virus in culture; parameters: species or system Escherichia coli clinical isolates; CLSI broth microdilution MIC on E. coli clinical isolates, A600 read-out, 90% growth inhibition; details: SEC050, read-out: MIC VALUES / Ampicillin
T8 construct: SEC050
Experimental: as §1

Escherichia coli SEC045 [7] = tested on: T1, Escherichia coli SEC045; assay: microbe, parasite or virus in culture; parameters: species or system Escherichia coli clinical isolates; CLSI broth microdilution MIC on E. coli clinical isolates, A600 read-out, 90% growth inhibition; details: SEC045, read-out: MIC VALUES / Ampicillin
Experimental: as §1

Escherichia coli SEC037 [8] = tested on: T9, Escherichia coli SEC037; assay: microbe, parasite or virus in culture; parameters: species or system Escherichia coli clinical isolates; CLSI broth microdilution MIC on E. coli clinical isolates, A600 read-out, 90% growth inhibition; details: SEC037, read-out: MIC VALUES / Ampicillin
T9 construct: SEC037
Experimental: as §1

Escherichia coli SEC046 = tested on: T10, Escherichia coli SEC046; assay: microbe, parasite or virus in culture; parameters: species or system Escherichia coli clinical isolates; CLSI broth microdilution MIC on E. coli clinical isolates, A600 read-out, 90% growth inhibition; details: SEC046, read-out: MIC VALUES / Ampicillin
T10 construct: SEC046
Experimental: as §1

Escherichia coli SEC032 [9] = tested on: T6, Escherichia coli SEC032; assay: microbe, parasite or virus in culture; parameters: species or system Escherichia coli clinical isolates; CLSI broth microdilution MIC on E. coli clinical isolates, A600 read-out, 90% growth inhibition; details: SEC032, read-out: MIC VALUES / Ampicillin
Experimental: as §1

Escherichia coli SEC030 [10] = tested on: T11, Escherichia coli SEC030; assay: microbe, parasite or virus in culture; parameters: species or system Escherichia coli clinical isolates; CLSI broth microdilution MIC on E. coli clinical isolates, A600 read-out, 90% growth inhibition; details: SEC030, read-out: MIC VALUES / Ampicillin
T11 construct: SEC030
Experimental: as §1

| SMILES | Linezolid MIC without PAβN (Escherichia coli SEC045 [1]) | Linezolid MIC without PAβN (Escherichia coli SEC052) | Linezolid MIC without PAβN (Escherichia coli SEC063) | Linezolid MIC without PAβN (Escherichia coli SEC010) | Linezolid MIC without PAβN (Escherichia coli SEC056) | Linezolid MIC without PAβN (Escherichia coli SEC032 [2]) | Linezolid MIC without PAβN (Escherichia coli SEC086 [3]) | Linezolid MIC without PAβN (Escherichia coli SEC037 [4]) | Linezolid MIC without PAβN (Escherichia coli SEC030 [5]) | Linezolid MIC without PAβN (Escherichia coli BW25113) | MIC (Escherichia coli SEC086 [6]) | MIC (Escherichia coli SEC050) | MIC (Escherichia coli SEC045 [7]) | MIC (Escherichia coli SEC037 [8]) | MIC (Escherichia coli SEC046) | MIC (Escherichia coli SEC032 [9]) | MIC (Escherichia coli SEC030 [10]) |
| --- | --- | --- | --- | --- | --- | --- | --- | --- | --- | --- | --- | --- | --- | --- | --- | --- | --- |
| CC(=O)NC[C@H]1CN(c2ccc(N3CCOCC3)c(F)c2)C(=O)O1 [Linezolid] | 200 µg/mL | 200 µg/mL | 400 µg/mL | 400 µg/mL | 200 µg/mL | 400 µg/mL | 200 µg/mL | 200 µg/mL | 400 µg/mL | 200 µg/mL | – | – | – | – | – | – | – |
| CC1(C)S[C@@H]2[C@H](NC(=O)[C@H](N)c3ccccc3)C(=O)N2[C@H]1C(=O)O [ampicillin] | – | – | – | – | – | – | – | – | – | – | 4 µg/mL (≈ 11.4 µM) | 8 µg/mL (≈ 22.9 µM) | 4 µg/mL (≈ 11.4 µM) | 2 µg/mL (≈ 5.72 µM) | 8 µg/mL (≈ 22.9 µM) | 8 µg/mL (≈ 22.9 µM) | 2 µg/mL (≈ 5.72 µM) |
